Where two headings read alike, the source gives them in different places.
Experiments:
[1] = system: MT-2 cells; test: Compounds' cytotoxicity assay in MT-2 cells (CellTiter-Glo); format: cell-based; parameters: unit not given here; conditions: toxicity in MT-2 cells, 3 days
Experimental: 3. Method for Compounds' Cytotoxicity Assay:
The MT-2 cells are diluted to a needed concentration. 90 μl of the MT-2 cells suspension was added into 384-well plates containing 10 μl of the tested compounds. Compounds were dissolved in DMSO and tested as 11 points 3-fold serial dilutions. After addition of cells to compound plates, plates were placed to humidified 5% CO2 37 incubator for 3 days. The Luciferase activity was measured by CellTiter-Glo® Luminescent Cell Viability Assay kit (Promega Corp., WI, USA).
(§1) TC50 is referred to the toxicity in MT-2 cells by the compounds tested at 50% concentration; IC50 is referred to the inhibiting HIV-1IIIB replication in MT-2 cells by the compounds tested at 50% concentration; Therapeutic Index (TI)=TC50/IC50.

[2] = system: HIV-1IIIB; test: HIV-1 full replication assay (HIV-1IIIB-infected MT-2 cells, supernatant read out on TZM-bl cells, β-Gal); format: cell-based
Experimental: The antiviral activity of the compounds of the present invention was determined in a HIV-1 full replication assay.
In this assay, MT-2 cells that are infected with HIV-1IIIB were co-cultured with different concentration of the tested compounds for 3 days and then supernatant is transferred into new 384-well plates containing TZM-bl cells (also called JC53-bl). TZM-bl cells that could be infected by various kinds of HIV-1 strains stably express a great amount of HIV-1 receptor, co-receptor CD4 molecular, and co-receptor CXCR4 and CCR5. TZM-bl cells harbor LTR-luciferase and β-gal two report genes. The expression of luciferase and β-gal reporter directed by HIV-1 LTR can be activated by Tat protein generated after HIV infection, and the quantity of expression is proportional to the quantity of HIV-1. Compounds that interfere with virus replication in MT-2 cells, maturation of the virus, or post-entry steps in the HIV lifecycle decrease the luciferase signal or β-gal signal. In this experiment, BVM (Bevirimat, PA-457) is used as a positive control drug.
Method for Inhibiting HIV-1 Replication Assay:
The MT-2 cells are infected at a Multiciplicity (MOI) of 0.01 TCID50, and then the MT-2 cells suspension was diluted to a needed concentration. 90 μl of the MT-2 cells suspension from above was added into 384-well plates containing 10 μl of the tested compounds.
Compounds were dissolved in DMSO and tested as 11 points 3-fold serial dilutions. After addition of cells to compound plates, plates were placed to humidified 5% CO2 37 incubator for 3 days. 10 μl of cells culture supernatant from the incubated plates was transferred into new black 384-well plates.
Adjusted the TZMb1 cells concentration and 40 μl of TZMb1 cells was added into each well in the black 384-well plates. After addition of the TZMb1 cells to the black plates, black plates were placed to humidified 5% CO2 37 incubator for 24 h, then β-Gal activity was measured.
The anti viral activity %=(measured number-lowest mean number)/(highest mean number-lowest mean number)×100. The IC50 values were calculated by Median Equation and the IC curve was generated by Graphpad Prism V 5.03.
as §1

[3] = Human immunodeficiency virus 1, MT2, 72 h, inhibiting HIV-1IIIB replication in MT-2 cells, 3 days, read-out: IC50 (PM)
[4] = Human immunodeficiency virus 1, MT2, HIV replication in MT-2 cell (HIV-1IIIB) assay, read-out: IC50

| Structure (SMILES) | TC50 (PM) [1] | IC50 [2, 3] [nM] | IC50 ([2]; Human immunodeficiency virus 1, MT2, 72 h, read-out: IC50 (PM)) [nM] | IC50 [2, 4] [nM] |
| --- | --- | --- | --- | --- |
| CC(C)C1=C2[C@H]3CC[C@@H]4[C@@]5(C)CC[C@H](OC(=O)CC(C)(C)C(=O)O)C(C)(C)[C@@H]5CC[C@@]4(C)[C@]3(C)CC[C@@]2(c2cc(=O)n(Cc3ccc(Cl)cc3)n2C)CC1=O [91′-1] | 22 | – | – | – |
| CC(C)C1=C2[C@H]3CC[C@@H]4[C@@]5(C)CC[C@H](OC(=O)CC(C)(C)C(=O)O)C(C)(C)[C@@H]5CC[C@@]4(C)[C@]3(C)CC[C@@]2(Cc2cc(=O)n(-c3ccc(Cl)cc3)n2C)CC1=O [98′-1] | 62 | ≤ 0.17 | – | – |
| CC(C)C1=C2[C@H]3CC[C@@H]4[C@@]5(C)CC[C@H](OC(=O)CC(C)(C)C(=O)O)C(C)(C)[C@@H]5CC[C@@]4(C)[C@]3(C)CC[C@@]2(Cc2cc(=O)n(-c3ccc(Cl)cn3)n2C)CC1=O [98′-2] | 56 | 0.37 | – | – |
| C=C(C)[C@@H]1CC[C@]2(C(=O)O)CC[C@]3(C)[C@H](CC[C@@H]4[C@@]5(C)CC[C@H](OC(=O)CC(C)(C)C(=O)O)C(C)(C)[C@@H]5CC[C@]43C)[C@@H]12 [BVM, Bevirimat, reference compound] | – | – | 5 | – |
| CC(C)C1=C2[C@H]3CC[C@@H]4[C@@]5(C)CC[C@H](OC(=O)CC(C)(C)C(=O)O)C(C)(C)[C@@H]5CC[C@@]4(C)[C@]3(C)CC[C@@]2(Cc2nnc(-c3ccc(Cl)cc3)o2)CC1=O [Compound 22-1] | 46 | 3.3 | – | – |
| CC(C)C1=C2[C@H]3CC[C@@H]4[C@@]5(C)CC[C@H](OC(=O)CC(C)(C)C(=O)O)C(C)(C)[C@@H]5CC[C@@]4(C)[C@]3(C)CC[C@@]2(Cc2nnc(-c3ccccc3)o2)CC1=O [Compound 22-2] | 28 | 1.7 | – | – |
| CC(C)C1=C2[C@H]3CC[C@@H]4[C@@]5(C)CC[C@H](OC(=O)CC(C)(C)C(=O)O)C(C)(C)[C@@H]5CC[C@@]4(C)[C@]3(C)CC[C@@]2(Cc2nnc(-c3ccc(Cl)cn3)o2)CC1=O [Compound 22-3] | 36 | 1.6 | – | – |
| CC(C)C1=C2[C@H]3CC[C@@H]4[C@@]5(C)CC[C@H](OC(=O)CC(C)(C)C(=O)O)C(C)(C)[C@@H]5CC[C@@]4(C)[C@]3(C)CC[C@@]2(Cc2nnc(-c3cccnc3)o2)CC1=O [Compound 22-9] | 33 | 4.3 | – | – |
| CC(C)C1=C2[C@H]3CC[C@@H]4[C@@]5(C)CC[C@H](OC(=O)CC(C)(C)C(=O)O)C(C)(C)[C@@H]5CC[C@@]4(C)[C@]3(C)CC[C@@]2(Cc2nnc(-c3ccc(C(F)(F)F)cn3)o2)CC1=O [Compound 22-12] | 31 | 0.4 | – | – |
| CC(C)C1=C2[C@H]3CC[C@@H]4[C@@]5(C)CC[C@H](OC(=O)CC(C)(C)C(=O)O)C(C)(C)[C@@H]5CC[C@@]4(C)[C@]3(C)CC[C@@]2(Cc2nnc(-c3ccc(Cl)cc3F)o2)CC1=O [Compound 22-13] | 35 | 1.7 | – | – |
| CC(C)C1=C2[C@H]3CC[C@@H]4[C@@]5(C)CC[C@H](OC(=O)CC(C)(C)C(=O)O)C(C)(C)[C@@H]5CC[C@@]4(C)[C@]3(C)CC[C@@]2(Cc2nnc(-c3ccc(Br)cn3)o2)CC1=O [Compound 22-14] | 200 | ≤ 0.17 | – | – |
| CC(C)C1=C2[C@H]3CC[C@@H]4[C@@]5(C)CC[C@H](OC(=O)CC(C)(C)C(=O)O)C(C)(C)[C@@H]5CC[C@@]4(C)[C@]3(C)CC[C@@]2(Cc2nnc(-c3ccc(C#N)cn3)o2)CC1=O [Compound 22-15] | 34 | 2.1 | – | – |
| CC(C)C1=C2[C@H]3CC[C@@H]4[C@@]5(C)CC[C@H](OC(=O)CC(C)(C)C(=O)O)C(C)(C)[C@@H]5CC[C@@]4(C)[C@]3(C)CC[C@@]2(Cc2nnc(-c3ncc(Cl)cn3)o2)CC1=O [Compound 22-16] | 39 | 0.48 | – | – |
| COc1ccc(-c2nnc(C[C@@]34CC[C@]5(C)[C@H](CC[C@@H]6[C@@]7(C)CC[C@H](OC(=O)CC(C)(C)C(=O)O)C(C)(C)[C@@H]7CC[C@]65C)C3=C(C(C)C)C(=O)C4)o2)nc1 [Compound 22-17] | 200 | 2.8 | – | – |
| CC(C)C1=C2[C@H]3CC[C@@H]4[C@@]5(C)CC[C@H](OC(=O)CC(C)(C)C(=O)O)C(C)(C)[C@@H]5CC[C@@]4(C)[C@]3(C)CC[C@@]2(Cc2nnc(-c3ccc(F)cn3)o2)CC1=O [Compound 22-18] | 48 | 1.7 | – | – |
| CC(C)C1=C2[C@H]3CC[C@@H]4[C@@]5(C)CC[C@H](OC(=O)CC(C)(C)C(=O)O)C(C)(C)[C@@H]5CC[C@@]4(C)[C@]3(C)CC[C@@]2(c2nnc(-c3ccc(Cl)cc3)o2)CC1=O [Compound 27-1] | 50 | 3.3 | – | – |
| CC(C)C1=C2[C@H]3CC[C@@H]4[C@@]5(C)CC[C@H](OC(=O)CC(C)(C)C(=O)O)C(C)(C)[C@@H]5CC[C@@]4(C)[C@]3(C)CC[C@@]2(c2nnc(-c3ccccc3)o2)CC1=O [Compound 27-2] | 100 | 2 | – | – |
| CC(C)C1=C2[C@H]3CC[C@@H]4[C@@]5(C)CC[C@H](OC(=O)CC(C)(C)C(=O)O)C(C)(C)[C@@H]5CC[C@@]4(C)[C@]3(C)CC[C@@]2(c2nnc(-c3ccc(Cl)cn3)o2)CC1=O [Compound 27-3] | 36 | 1.5 | – | – |
| CC(C)C1=C2[C@H]3CC[C@@H]4[C@@]5(C)CC[C@H](OC(=O)CC(C)(C)C(=O)O)C(C)(C)[C@@H]5CC[C@@]4(C)[C@]3(C)CC[C@@]2(c2nnc(-c3cccnc3)o2)CC1=O [Compound 27-9] | 200 | 8.8 | – | – |
| CC(C)C1=C2[C@H]3CC[C@@H]4[C@@]5(C)CC[C@H](OC(=O)CC(C)(C)C(=O)O)C(C)(C)[C@@H]5CC[C@@]4(C)[C@]3(C)CC[C@@]2(c2nnc(-c3ccc(C(F)(F)F)cn3)o2)CC1=O [Compound 27-11] | 23 | 25 | – | – |
| CC(C)C1=C2[C@H]3CC[C@@H]4[C@@]5(C)CC[C@H](OC(=O)CC(C)(C)C(=O)O)C(C)(C)[C@@H]5CC[C@@]4(C)[C@]3(C)CC[C@@]2(c2cc(=O)n(CCN(C)C)n2C)CC1 [Compound 89-3] | – | – | – | < 5 |
| CC(C)C1=C2[C@H]3CC[C@@H]4[C@@]5(C)CC[C@H](OC(=O)CC(C)(C)C(=O)O)C(C)(C)[C@@H]5CC[C@@]4(C)[C@]3(C)CC[C@@]2(c2cc(=O)n(Cc3ccc(Cl)cc3)n2C)CC1=O [Compound 91-1] | 41 | – | – | – |
| CC(C)C1=C2[C@H]3CC[C@@H]4[C@@]5(C)CC[C@H](OC(=O)CC(C)(C)C(=O)O)C(C)(C)[C@@H]5CC[C@@]4(C)[C@]3(C)CC[C@@]2(c2cc(=O)n(CCN(C)C)n2C)CC1=O [Compound 91-4] | – | – | – | < 2 |
| CC(C)C1=C2[C@H]3CC[C@@H]4[C@@]5(C)CC[C@H](OC(=O)CC(C)(C)C(=O)O)C(C)(C)[C@@H]5CC[C@@]4(C)[C@]3(C)CC[C@@]2(c2c(Cl)c(=O)n(-c3ccc(Cl)cc3)n2C)CC1=O [Compound 98-8] | – | – | – | < 2 |
| CC(C)C1=C2[C@H]3CC[C@@H]4[C@@]5(C)CC[C@H](OC(=O)CC(C)(C)C(=O)O)C(C)(C)[C@@H]5CC[C@@]4(C)[C@]3(C)CC[C@@]2(c2c(Cl)c(=O)n(-c3ccc(Cl)cc3)n2CCN)CC1=O [Compound 155-2] | – | – | – | < 2 |
| CC(C)C1=C2[C@H]3CC[C@@H]4[C@@]5(C)CC[C@H](OC(=O)CC(C)(C)C(=O)O)C(C)(C)[C@@H]5CC[C@@]4(C)[C@]3(C)CC[C@@]2(c2c(Cl)c(=O)n(-c3ccc(Cl)cc3)n2CCN(C)C)CC1=O [Compound 156-2] | – | – | – | < 2 |
| CC(C)C1=C2[C@H]3CC[C@@H]4[C@@]5(C)CC[C@H](OC(=O)CC(C)(C)C(=O)O)C(C)(C)[C@@H]5CC[C@@]4(C)[C@]3(C)CC[C@@]2([C@@H](O)c2nnc(-c3ccc(Cl)cc3)n2CCN)CC1=O [Compound 164-1] | – | – | – | < 2 |
| CC(C)C1=C2[C@H]3CC[C@@H]4[C@@]5(C)CC[C@H](OC(=O)CC(C)(C)C(=O)O)C(C)(C)[C@@H]5CC[C@@]4(C)[C@]3(C)CC[C@@]2([C@@H](O)c2nnc(-c3ccc(Cl)cc3)n2CCN(C)C)CC1=O [Compound 165-1] | – | – | – | < 2 |

From patent publication US9428542B2, “Lupane triterpenoid derivatives and pharmaceutical use thereof” (priority 2012, dated 2016)
